Among the data in patent US11897851B2, “Heterocyclic GLP-1 agonists” (Gasherbrum Bio, Inc., priority 2021, dated 2024) are EC50 values, retold here.

The target of the experiment is T1, GLP-1 Receptor (Homo sapiens, UniProt P43220).
T1 construct: host or cells: HEK293/GLP1R/CRE-LUC (HEK293/CRE-Luc stably expressing the GLP-1 receptor)
Description: GLP-1R agonist cAMP stimulation assay (HEK293/GLP1R/CRE-LUC cells, Cisbio cAMP dynamic 2 kit).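 Note: compounds tested in half-log serial dilution, cAMP detected with cAMP-d2 and anti-cAMP cryptate antibody reagents after 1 h at room temperature.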 The class given is cell-based. To be noted: HEK293/CRE-Luc cell line stably expressing the GLP-1 Receptor; 1000 cells/well; 30 min at 37° C.; 0.5 mM IBMX, 0.1% BSA; read-out: GLP1R cAMP Stimulation DR: EC50.

Structures are written as SMILES. Where only a bound is given, the exact number is not on record here.

The EC50 is the concentration at which the effect is half-maximal.

T1 sequence (P43220 24-463, species assumed): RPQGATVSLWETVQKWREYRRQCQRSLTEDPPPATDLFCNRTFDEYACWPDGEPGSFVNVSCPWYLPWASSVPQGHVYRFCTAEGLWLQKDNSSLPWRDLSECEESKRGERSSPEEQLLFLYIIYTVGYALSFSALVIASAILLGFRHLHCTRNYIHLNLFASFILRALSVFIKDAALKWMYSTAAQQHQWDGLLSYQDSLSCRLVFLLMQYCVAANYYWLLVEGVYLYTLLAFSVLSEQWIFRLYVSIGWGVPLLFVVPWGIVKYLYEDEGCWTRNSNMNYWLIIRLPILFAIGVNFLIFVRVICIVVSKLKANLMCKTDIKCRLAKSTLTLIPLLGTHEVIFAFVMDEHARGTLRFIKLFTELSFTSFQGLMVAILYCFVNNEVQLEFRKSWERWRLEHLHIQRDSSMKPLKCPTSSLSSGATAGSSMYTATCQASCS

Turning to `CC(Nc1ccc(CN2CCC(c3cccc(OCc4ccc(Cl)cc4F)n3)CC2)nc1)C(=O)O` (stereo not drawn) [Compound 130, 2-((6-((4-(6-((4-chloro-2-fluorobenzyl)oxy)pyridin-2-yl)piperidin-1-yl)methyl)pyridin-3-yl)amino)propanoic acid], the EC50 is > 1000 nM. Then `C/C(=C\c1cnc(CN2CCC(c3cccc4c3OC(c3ccc(Cl)cc3F)O4)CC2)n1C[C@@H]1CCO1)C(=O)O` (stereo partly drawn) [Compound 132a, (E)-3-(2-((4-(2-(4-chloro-2-fluorophenyl)benzo[d][1,3]dioxol-4-yl)piperidin-1-yl)methyl)-1-((S)-oxetan-2-ylmethyl)-1H-imidazol-5-yl)-2-methylacrylic acid], with 1.6 nM; and `C/C(=C\c1cnc(CN2CCC(c3cccc4c3O[C@@H](c3ccc(Cl)cc3)O4)CC2)n1C[C@@H]1CCO1)C(=O)O` [Compound 133a, (E)-3-(2-((4-((S)-2-(4-chlorophenyl)benzo[d][1,3]dioxol-4-yl)piperidin-1-yl)methyl)-1-(((S)-oxetan-2-yl)methyl)-1H-imidazol-5-yl)-2-methylacrylic acid], with 5.4 nM.

As to `C/C(=C\c1cnc(CN2CCC(c3cccc4c3O[C@H](c3ccc(Cl)cc3)O4)CC2)n1C[C@@H]1CCO1)C(=O)O` [Compound 133b, (E)-3-(2-((4-((R)-2-(4-chlorophenyl)benzo[d][1,3]dioxol-4-yl)piperidin-1-yl)methyl)-1-(((S)-oxetan-2-yl)methyl)-1H-imidazol-5-yl)-2-methylacrylic acid], the concentration for a half-maximal effect (EC50) is 48 nM.

`C/C(=C\c1cnc(CN2CCC(c3cccc4c3O[C@@](C)(c3ccc(Cl)cc3)O4)CC2)n1C[C@@H]1CCO1)C(=O)O` [Compound 134a, (E)-3-(2-((4-((S)-2-(4-chlorophenyl)-2-methylbenzo [d][1,3]dioxol-4-yl)piperidin-1-yl)methyl)-1-(((S)-oxetan-2-yl)methyl)-1H-imidazol-5-yl)-2-methylacrylic acid]: the half-maximal effective concentration (EC50) turned out to be 0.21 nM. For `C/C(=C\c1cnc(CN2CCC(c3cccc4c3O[C@](C)(c3ccc(Cl)cc3)O4)CC2)n1C[C@@H]1CCO1)C(=O)O` [Compound 134b, (E)-3-(2-((4-((R)-2-(4-chlorophenyl)-2-methylbenzo[d][1,3]dioxol-4-yl)piperidin-1-yl)methyl)-1-(((S)-oxetan-2-yl)methyl)-1H-imidazol-5-yl)-2-methylacrylic acid] the value was 17 nM; for `C[C@]1(c2ccc(Cl)cc2F)Oc2cccc(C3CCN(Cc4ncc(/C=C/C(=O)O)n4C[C@@H]4CCO4)CC3)c2O1` [Compound 135a, (E)-3-(2-((4-((S)-2-(4-chloro-2-fluorophenyl)-2-methylbenzo[d][1,3]dioxol-4-yl)piperidin-1-yl)methyl)-1-(((S)-oxetan-2-yl)methyl)-1H-imidazol-5-yl)acrylic acid], 0.033 nM; for `C[C@@]1(c2ccc(Cl)cc2F)Oc2cccc(C3CCN(Cc4ncc(/C=C/C(=O)O)n4C[C@@H]4CCO4)CC3)c2O1` [Compound 135b, (E)-3-(2-((4-((R)-2-(4-chloro-2-fluorophenyl)-2-methylbenzo[d][1,3]dioxol-4-yl)piperidin-1-yl)methyl)-1-(((S)-oxetan-2-yl)methyl)-1H-imidazol-5-yl)acrylic acid], 15 nM.

`CC1(c2ccc(Cl)cc2F)Oc2cccc(C3CCN(Cc4nnc(/C=C/C(=O)O)n4C[C@@H]4CCO4)CC3)c2O1` (stereo partly drawn) [Compound 136a, (E)-3-(5-((4-(2-(4-chloro-2-fluorophenyl)-2-methylbenzo[d][1,3]dioxol-4-yl)piperidin-1-yl)methyl)-4-(((S)-oxetan-2-yl)methyl)-4H-1,2,4-triazol-3-yl)acrylic acid]: the EC50 was 0.11 nM. Then `C/C(=C\c1nnc(CN2CCC(c3cccc4c3OC(C)(c3ccc(Cl)cc3F)O4)CC2)n1C[C@@H]1CCO1)C(=O)O` (stereo partly drawn) [Compound 137a, (E)-3-(5-((4-(2-(4-chloro-2-fluorophenyl)-2-methylbenzo[d][1,3]dioxol-4-yl)piperidin-1-yl)methyl)-4-(((S)-oxetan-2-yl)methyl)-4H-1,2,4-triazol-3-yl)-2-methylacrylic acid], with 0.3 nM. On to `CCn1cncc1Cn1c(/C=C(\C)C(=O)O)cnc1CN1CCC(c2cccc3c2OC(C)(c2ccc(Cl)cc2F)O3)CC1` (stereo not drawn) [Compound 138, (E)-3-(2-((4-(2-(4-chloro-2-fluorophenyl)-2-methylbenzo[d][1,3]dioxol-4-yl)piperidin-1-yl)methyl)-1-((1-ethyl-1H-imidazol-5-yl)methyl)-1H-imidazol-5-yl)-2-methylacrylic acid], for which the EC50 turned out to be 0.0034 nM. Regarding `CCn1cncc1Cn1c(/C=C(\C)C(=O)O)cnc1CN1CCC(c2cccc3c2O[C@@](C)(c2ccc(Cl)cc2F)O3)CC1` [Compound 138a, (S,E)-3-(2-((4-(2-(4-chloro-2-fluorophenyl)-2-methylbenzo[d][1,3]dioxol-4-yl)piperidin-1-yl)methyl)-1-((1-ethyl-1H-imidazol-5-yl)methyl)-1H-imidazol-5-yl)-2-methylacrylic acid], the EC50 came out at 0.0023 nM.

Take `CCn1cncc1Cn1c(/C=C(\C)C(=O)O)cnc1CN1CCC(c2cccc3c2O[C@](C)(c2ccc(Cl)cc2F)O3)CC1` [Compound 138b, (R,E)-3-(2-((4-(2-(4-chloro-2-fluorophenyl)-2-methylbenzo[d][1,3]dioxol-4-yl)piperidin-1-yl)methyl)-1-((1-ethyl-1H-imidazol-5-yl)methyl)-1H-imidazol-5-yl)-2-methylacrylic acid]: the concentration for a half-maximal effect (EC50) is 0.66 nM. `CCn1cncc1Cn1c(/C=C/C(=O)O)cnc1CN1CCC(c2cccc3c2O[C@@](C)(c2ccc(Cl)cc2F)O3)CC1` [Compound 139a, (S,E)-3-(2-((4-(2-(4-chloro-2-fluorophenyl)-2-methylbenzo[d][1,3]dioxol-4-yl)piperidin-1-yl)methyl)-1-((1-ethyl-1H-imidazol-5-yl)methyl)-1H-imidazol-5-yl)acrylic acid]: the EC50 turned out to be 0.0012 nM.

Turning to `CCn1cncc1Cn1c(/C=C/C(=O)O)cnc1CN1CCC(c2cccc3c2O[C@](C)(c2ccc(Cl)cc2F)O3)CC1` [Compound 139b, (R,E)-3-(2-((4-(2-(4-chloro-2-fluorophenyl)-2-methylbenzo[d][1,3]dioxol-4-yl)piperidin-1-yl)methyl)-1-((1-ethyl-1H-imidazol-5-yl)methyl)-1H-imidazol-5-4)acrylic acid], the EC50 was found to be 0.2 nM.

On to `CC1(c2ccc(Cl)cc2F)Oc2cccc(C3CCN(Cc4ncc(/C=C/C(=O)O)n4C[C@@H]4CCCO4)CC3)c2O1` (stereo partly drawn) [Compound 140a, (E)-3-(2-((4-(2-(4-chloro-2-fluorophenyl)-2-methylbenzo[d][1,3]dioxol-4-yl)piperidin-1-yl)methyl)-1-(((S)-tetrahydrofuran-2-yl)methyl)-1H-imidazol-5-yl)acrylic acid], for which the EC50 came to 0.09 nM. For `COCCn1c(/C=C/C(=O)O)cnc1CN1CCC(c2cccc3c2OC(C)(c2ccc(Cl)cc2F)O3)CC1` (stereo not drawn) [Compound 141, (E)-3-(2-((4-(2-(4-chloro-2-fluorophenyl)-2-methylbenzo[d][1,3]dioxol-4-yl)piperidin-1-yl)methyl)-1-(2-methoxyethyl)-1H-imidazol-5-yl)acrylic acid] the value was 0.012 nM; for `CCn1cncc1Cn1c(/C=C/C(=O)O)nnc1CN1CCC(c2cccc3c2OC(C)(c2ccc(Cl)cc2F)O3)CC1` (stereo not drawn) [Compound 142, (E)-3-(5-((4-(2-(4-chloro-2-fluorophenyl)-2-methylbenzo[d][1,3]dioxol-4-yl)piperidin-1-yl)methyl)-4-((1-ethyl-1H-imidazol-5-yl)methyl)-4H-1,2,4-triazol-3-yl)acrylic acid], 0.012 nM.

Take `CCn1cncc1Cn1c(CCC(=O)O)cnc1CN1CCC(c2cccc3c2OC(C)(c2ccc(Cl)cc2F)O3)CC1` (stereo not drawn) [Compound 143, 3-(2-((4-(2-(4-chloro-2-fluorophenyl)-2-methylbenzo[d][1,3]dioxol-4-yl)piperidin-1-yl)methyl)-1-((1-ethyl-1H-imidazol-5-yl)methyl)-1H-imidazol-5-yl)propanoic acid]: the EC50 is 0.0059 nM. With `CCn1cncc1Cn1c(CCC(=O)O)nnc1CN1CCC(c2cccc3c2OC(C)(c2ccc(Cl)cc2F)O3)CC1` (stereo not drawn) [Compound 144, 3-(5-((4-(2-(4-chloro-2-fluorophenyl)-2-methylbenzo[d][1,3]dioxol-4-yl)piperidin-1-yl)methyl)-4-((1-ethyl-1H-imidazol-5-yl)methyl)-4H-1,2,4-triazol-3-yl)propanoic acid], the EC50 was determined as 0.015 nM. Then `C[C@]1(c2ccc(Cl)cc2F)Oc2cccc(C3CCN(Cc4ncc(/C=C/C(=O)O)n4CCOC(F)(F)F)CC3)c2O1` [Compound 145, (S,E)-3-(2-((4-(2-(4-chloro-2-fluorophenyl)-2-methylbenzo[d][1,3]dioxol-4-yl)piperidin-1-yl)methyl)-1-(2-(trifluoromethoxy)ethyl)-1H-imidazol-5-yl)acrylic acid], with 0.16 nM; and `CC1(c2ccc(Cl)cc2F)Oc2cccc(C3CCN(Cc4ncc(/C=C/C(=O)O)n4Cc4cccnc4C(F)(F)F)CC3)c2O1` (stereo not drawn) [Compound 146, (E)-3-(2-((4-(2-(4-chloro-2-fluorophenyl)-2-methylbenzo[d][1,3]dioxol-4-yl)piperidin-1-yl)methyl)-1-((2-(trifluoromethyl)pyridin-3-yl)methyl)-1H-imidazol-5-yl)acrylic acid], with 1.9 nM. Consider `Cc1ncccc1Cn1c(/C=C/C(=O)O)cnc1CN1CCC(c2cccc3c2OC(C)(c2ccc(Cl)cc2F)O3)CC1` (stereo not drawn) [Compound 147, (E)-3-(2-((4-(2-(4-chloro-2-fluorophenyl)-2-methylbenzo[d][1,3]dioxol-4-yl)piperidin-1-yl)methyl)-1-((2-methylpyridin-3-yl)methyl)-1H-imidazol-5-yl)acrylic acid], for which the EC50 was 0.045 nM. Then `CCc1ncccc1Cn1c(/C=C/C(=O)O)cnc1CN1CCC(c2cccc3c2OC(C)(c2ccc(Cl)cc2F)O3)CC1` (stereo not drawn) [Compound 148, (E)-3-(2-((4-(2-(4-chloro-2-fluorophenyl)-2-methylbenzo[d][1,3]dioxol-4-yl)piperidin-1-yl)methyl)-1-((2-ethylpyridin-3-yl)methyl)-1H-imidazol-5-yl)acrylic acid], with 0.98 nM.
